Source: patent US20070134286A1, “Methods for reducing intimal hyperplasia, smooth muscle cell proliferation and restenosis in mammals” (priority 2004, published 2007)
Read-outs that look alike come from different tables or passages of the source.

Assays:
[1] = tested on: human coronary artery smooth muscle cells; assay: 3H-thymidine incorporation (DNA synthesis / cell proliferation); format: cell-based
Experimental: One day after plating, the cells were treated with test agents for 24 hours and then labeled with 0.3 μCi/well of ^3H-thymidine for another 48 hours. Each well was washed with 0.3 ml/well of PBS, incubated with 0.2 ml/well of ice-cold 10% trichloroacetic acid (hereinafter “TCA”) for 30 minutes at 4° C., and then followed by another wash of 0.2 ml/well of TCA. Samples were dissolved in MICROSCINT™ 20 before counting. Data shown are mean ± the standard deviation (n=4).
Thymidine incorporation: Cells were plated at 1×10^6 cells/ml, 200 μl/well into 96-well plates (Costar). One day after plating, the cells were treated with test agents for 24 hr and then labeled with 0.3 μCi/well of ^3H-thymidine for another 48 hr. Each well was washed with 0.3 ml/well of PBS, incubated with 0.2 ml/well of ice-cold 10% trichloroacetic acid (TCA) for 30 min at 4° C., and then followed by another wash of 0.2 ml/well of TCA. Samples were dissolved in MICROSCINT™ 20 (Packard) before counting.

[2] = tested on: plasminogen activator inhibitor type-1 (PAI-1); assay: SDS-PAGE and Western blot of PAI-1 in CASMC; format: cell-based, human; conditions: Western blot, FIG. 6
Experimental: SDS-PAGE and Western Blot Analysis: Cells (1×10^6 cells per sample) pretreated with or without test agents were solubilized in 50 μl of SDS-PAGE sample buffer (Sigma, St. Louis, Mo.), and the protein content in each sample was determined by the Pierce (Rockford, Ill.) BCA protein assay. Samples were resolved by SDS-PAGE using a 4-12% NuPAGE gel (Invitrogen, Carlsbad, Calif.), and proteins were electrophoretically transferred to polyvinylidene fluoride (hereinafter “PVDF”) membrane for Western blotting. The membrane was blotted for 1 hour at 25° C. with 5% nonfat dry milk in PBS-T and then incubated with a mouse anti-PAI-1 monoclonal antibody (1000-fold dilution, Santa Cruz Biotechnology, Santa Cruz, Calif.) in PBS-T overnight at 4° C. The membrane was washed with PBS-T and incubated with a horseradish peroxidase-labeled anti-mouse antibody for 1 hour at 25° C. The membrane was then incubated with detection reagent (SuperSignal WestPico, Pierce, Rockford, Ill.). Specific bands were visualized by exposing the paper to Kodak BioMax films.

[3] = tested on: primary culture of human coronary artery smooth muscle cells; assay: Affymetrix U133Av2 microarray gene expression; format: cell-based; conditions: 100 nM, 30 hr, ratio to no-drug control; for FC angiopoietin 1 (NM_001146) / FC coagulation factor II (thrombin) receptor-like 1 (NM_005242) / FC endothelin receptor type B (NM_000115) / FC fibroblast growth factor 9 (glia-activating factor) (NM_002010) / FC fibroblast growth factor receptor 3 (achondroplasia, thanatophoric dwarfism) (NM_000142) / FC insulin-like growth factor 1 (somatomedin C) (NM_000618) / FC matrix metalloproteinase 14 (membrane-inserted) (NM_004995) / FC natriuretic peptide precursor B (NM_002521) / FC oxytocin receptor (NM_000916) / FC phospholamban (NM_002667) / FC prostaglandin-endoperoxide synthase 1 (prostaglandin G/H synthase and cyclooxygenase) (NM_000962) / FC thrombomodulin (NM_000361) / FC thrombospondin 1 (AI812030) / FC transforming growth factor, beta 2 (NM_003238) / FC transforming growth factor, beta 3 (J03241): Table 4
Experimental: Microarray: […] While the yield of total RNA was low ([…] total per sample), the RNAs were intact as judged by Agilent 2100 analysis. One μg of total RNA from each sample was used to prepare biotin-labeled cRNA target using standard Affymetrix protocols. Prepared cRNA targets were of good quality and quantity. The Affymetrix Human chip U133Av2 was used (22,000+ probe sets) and 10 μg cRNA target was applied to each array. […] Scanned images were loaded into the Rosetta Resolver 4.0 database and processed using the Resolver Affymetrix error model. Within Resolver the drug treated sample replicates (n=3) were informatically combined and ratios constructed relative to the combined control (no addition of drug) samples. The Resolver Affymetrix error model was used to develop each ratio and calculate a p-value. The Resolver error model is robust and includes reporter level, background and error values in the calculation of statistical significance. A combination of hierarchical clustering, gene ontology analysis and pathway mapping were used to assess the function of the regulated genes.

IGF1 = assay: Real-time RT-PCR, IGF1 mRNA expression in smooth muscle cells; format: cell-based; conditions: Homo sapiens, normalized to GAPDH, FIG. 7, read-out: EC50 on IGF1 mRNA expression (up-regulation)
Experimental: (§1) Primers and probes for Real-time Reverse Transcription-PCR: For quantitative PCR (qPCR), TaqMan™ probes that were 5′ labeled with the reporter 6-carboxyfluorescein (FAM) and 3′ labeled with the quencher tetramethylrhodamine (TAMRA) were used. The primer and probe sets were obtained from the Assay-on-Demand collection (Applied Biosytsems).
(§2) Real-time Reverse Transcription-PCR: PCR was performed with a 7900HT sequence detector (Applied Biosytsems). Each sample has a final volume of 25 μl containing 50 ng of cDNA, […] each of the forward and reverse PCR primers and […] of the TaqMan™ probe. Temperature conditions consisted of a step of 5 minutes at 95° C., followed by 40 cycles of 60° C. for 1 minute and 95° C. for 15 seconds. Data was collected during each extension phase of the PCR reaction and analyzed with the SDS software package (Applied Biosystems). Threshold cycles were determined for each gene. The expression level of target gene of interest was given as relative expression normalized against glyceraldehyde-3-phosphate dehydrogenase (GAPDH).

WT1 = assay: Real-time RT-PCR, WT1 mRNA expression in smooth muscle cells; format: cell-based; conditions: Homo sapiens, normalized to GAPDH, FIG. 7, read-out: EC50 on WT1 mRNA expression (up-regulation)
Experimental: as §1, §2

TGFβ3 = assay: Real-time RT-PCR, TGFβ3 mRNA expression in smooth muscle cells; format: cell-based; conditions: Homo sapiens, normalized to GAPDH, FIG. 7, read-out: EC50 on TGFβ3 mRNA expression (up-regulation)
Experimental: as §1, §2

VDR = conditions: 0.1 μM, CASMC in growth medium, not all cells responded, FIG. 2

CC(=O)O[C@H]1C(=O)[C@@]2(C)[C@H]([C@H](OC(=O)c3ccccc3)[C@]3(O)C[C@H](OC(=O)[C@H](O)[C@@H](NC(=O)c4ccccc4)c4ccccc4)C(C)=C1C3(C)C)[C@]1(OC(C)=O)CO[C@@H]1C[C@@H]2O [taxol]
effect on DNA synthesis ([3H]-thymidine incorporation) ([1]; Example 1, even at 0.01 nM, FIG. 3): severely impacted DNA synthesis

C[C@H](/C=C/[C@H](C)C(C)(C)O)[C@H]1CC[C@H]2/C(=C/C=C3C[C@@H](O)C[C@H](O)C3)CCC[C@]12C [paricalcitol, 19-nor-1α,3β,25-trihydroxy-9,10-secoergosta-5(Z); 7(E),22(E)-triene]
EC50 ([1]; Homo sapiens, Example 1, CASMC, FIG. 4, read-out: EC50 inhibiting DNA synthesis ([3H]-thymidine incorporation)): 0.044 ± 0.004 nM
EC50 ([1]; Homo sapiens, Example 2, FIG. 8, read-out: EC50 inhibition of 3H-thymidine incorporation): 0.2 nM
inhibition at 0.01 µM ([1]; Homo sapiens, Example 2, at 10 nM, compared to cells in growth medium): 46%
potency in reducing PAI-1 level / inhibiting PAI-1 expression [2]: as potent as calcitriol
FC CD1D antigen, d polypeptide (205789_at) [3]: 5.38
FC CDK5 regulatory subunit associated protein 2 (220935_s_at) [3]: 2.91
FC Kruppel-like factor 4 (gut) (220266_s_at) [3]: 2.37
FC PMS2 postmeiotic segregation increased 2 (S. cerevisiae) (209805_at) [3]: 2.18
FC Wilms tumor 1 (206067_s_at) [3]: 3.32
FC Wilms tumor 1 (216953_s_at) [3]: 4.64
FC Wilms tumor associated protein (206954_at) [3]: 2.72
FC basic helix-loop-helix domain containing, class B, 3 (221530_s_at) [3]: −1.80
FC cholecystokinin B receptor (210381_s_at) [3]: −3.04
FC cyclin F (204827_s_at) [3]: −2.75
FC cysteine and glycine-rich protein 2 (207030_s_at) [3]: −2.18
FC cysteine and glycine-rich protein 2 (211126_s_at) [3]: −2.33
FC ecotropic viral integration site 2A (204774_at) [3]: −2.49
FC fibroblast growth factor 9 (glia-activating factor) (206404_at) [3]: 1.88
FC insulin-like growth factor 1 (somatomedin C) (209540_at) [3]: 4.89
FC insulin-like growth factor 1 (somatomedin C) (209541_at) [3]: 2.63
FC insulin-like growth factor 1 (somatomedin C) (209542_x_at) [3]: 3.24
FC insulin-like growth factor 1 (somatomedin C) (211577_s_at) [3]: 3.43
FC mitogen-activated protein kinase 13 (210058_at) [3]: 2.40
FC mitogen-activated protein kinase 13 (210059_s_at) [3]: 3.26
FC myosin heavy polypeptide 10, non-muscle (213067_at) [3]: −1.80
FC putative lymphocyte G0/G1 switch gene (213524_s_at) [3]: 3.46
FC retinoblastoma-like 2 (p130) (212332_at) [3]: −1.37
FC suppressor of cytokine signaling 2 (203372_s_at) [3]: −2.70
FC suppressor of cytokine signaling 2 (203373_at) [3]: −2.39
FC tetraspan 1 (209114_at) [3]: −1.79
FC transforming growth factor, beta 2 (209909_s_at) [3]: 2.48
FC transforming growth factor, beta 2 (220407_s_at) [3]: 1.88
FC transforming growth factor, beta 3 (209747_at) [3]: 2.80
FC angiopoietin 1 (NM_001146) [3]: 1.7
FC coagulation factor II (thrombin) receptor-like 1 (NM_005242) [3]: −2.1
FC endothelin receptor type B (NM_000115) [3]: 2.3
FC fibroblast growth factor 9 (glia-activating factor) (NM_002010) [3]: 1.9
FC fibroblast growth factor receptor 3 (achondroplasia, thanatophoric dwarfism) (NM_000142) [3]: 3.4
FC insulin-like growth factor 1 (somatomedin C) (NM_000618) [3]: 2.5
FC matrix metalloproteinase 14 (membrane-inserted) (NM_004995) [3]: 1.1
FC natriuretic peptide precursor B (NM_002521) [3]: −2.5
FC oxytocin receptor (NM_000916) [3]: −2.6
FC phospholamban (NM_002667) [3]: −2.4
FC prostaglandin-endoperoxide synthase 1 (prostaglandin G/H synthase and cyclooxygenase) (NM_000962) [3]: 2.0
FC thrombomodulin (NM_000361) [3]: 3.0
FC thrombospondin 1 (AI812030) [3]: −2.7
FC transforming growth factor, beta 2 (NM_003238) [3]: 2.5
FC transforming growth factor, beta 3 (J03241) [3]: 2.9
EC50 (IGF1): 0.2 nM
EC50 (WT1): 29.7 nM
EC50 (TGFβ3): 10.6 nM
VDR translocation (confocal microscopy) (VDR): VDR translocated into the nucleus

C=C1/C(=C\C=C2/CCC[C@]3(C)[C@@H]([C@H](C)CCCC(C)(C)O)CC[C@@H]23)C[C@@H](O)C[C@@H]1O [calcitriol, 1-alpha-25-dihydroxyvitamin D3]
FC CD1D antigen, d polypeptide (205789_at) [3]: 6.95
FC CDK5 regulatory subunit associated protein 2 (220935_s_at) [3]: 2.67
FC Kruppel-like factor 4 (gut) (220266_s_at) [3]: 2.67
FC PMS2 postmeiotic segregation increased 2 (S. cerevisiae) (209805_at) [3]: 2.85
FC Wilms tumor 1 (206067_s_at) [3]: 3.55
FC Wilms tumor 1 (216953_s_at) [3]: 6.63
FC Wilms tumor associated protein (206954_at) [3]: 2.96
FC basic helix-loop-helix domain containing, class B, 3 (221530_s_at) [3]: −2.00
FC cholecystokinin B receptor (210381_s_at) [3]: −1.65
FC cyclin F (204827_s_at) [3]: −1.09
FC cysteine and glycine-rich protein 2 (207030_s_at) [3]: −2.13
FC cysteine and glycine-rich protein 2 (211126_s_at) [3]: −2.21
FC ecotropic viral integration site 2A (204774_at) [3]: −1.77
FC fibroblast growth factor 9 (glia-activating factor) (206404_at) [3]: 2.07
FC insulin-like growth factor 1 (somatomedin C) (209540_at) [3]: 4.39
FC insulin-like growth factor 1 (somatomedin C) (209541_at) [3]: 2.78
FC insulin-like growth factor 1 (somatomedin C) (209542_x_at) [3]: 3.23
FC insulin-like growth factor 1 (somatomedin C) (211577_s_at) [3]: 3.47
FC mitogen-activated protein kinase 13 (210058_at) [3]: 2.27
FC mitogen-activated protein kinase 13 (210059_s_at) [3]: 3.27
FC myosin heavy polypeptide 10, non-muscle (213067_at) [3]: −2.03
FC putative lymphocyte G0/G1 switch gene (213524_s_at) [3]: 3.69
FC retinoblastoma-like 2 (p130) (212332_at) [3]: 1.10
FC suppressor of cytokine signaling 2 (203372_s_at) [3]: −2.29
FC suppressor of cytokine signaling 2 (203373_at) [3]: −2.50
FC tetraspan 1 (209114_at) [3]: −4.34
FC transforming growth factor, beta 2 (209909_s_at) [3]: 2.91
FC transforming growth factor, beta 2 (220407_s_at) [3]: 2.97
FC transforming growth factor, beta 3 (209747_at) [3]: 2.83
FC angiopoietin 1 (NM_001146) [3]: 2.0
FC coagulation factor II (thrombin) receptor-like 1 (NM_005242) [3]: −1.7
FC endothelin receptor type B (NM_000115) [3]: 3.4
FC fibroblast growth factor 9 (glia-activating factor) (NM_002010) [3]: 2.1
FC fibroblast growth factor receptor 3 (achondroplasia, thanatophoric dwarfism) (NM_000142) [3]: 1.9
FC insulin-like growth factor 1 (somatomedin C) (NM_000618) [3]: 2.8
FC matrix metalloproteinase 14 (membrane-inserted) (NM_004995) [3]: 2.1
FC natriuretic peptide precursor B (NM_002521) [3]: −2.0
FC oxytocin receptor (NM_000916) [3]: −3.0
FC phospholamban (NM_002667) [3]: −2.6
FC prostaglandin-endoperoxide synthase 1 (prostaglandin G/H synthase and cyclooxygenase) (NM_000962) [3]: 2.2
FC thrombomodulin (NM_000361) [3]: 3.3
FC thrombospondin 1 (AI812030) [3]: −3.2
FC transforming growth factor, beta 2 (NM_003238) [3]: 2.9
FC transforming growth factor, beta 3 (J03241) [3]: 2.9
